Data on three molecules can be found in patent US20260206761A1, “HETEROARYL-TRIAZOLE COMPOUNDS AS PESTICIDES” (Bayer Aktiengesellschaft, priority 2019, published 2026).

Usually mortality stands for the percentage killed.

In assay [1] the test system is southern root-knot nematode (Meloidogyne incognita). The assay can be described thus: Meloidogyne incognita test. The assay is classed as in vivo. Particulars: 336 h, application rate 20 ppm, after 14 days, read-out: nematicidal activity (based on gall formation). The procedure: Meloidoyne incognita—Test
Solvent: 125.0 parts by weight of acetone
To produce a suitable preparation of active compound, 1 part by weight of active compound is mixed with the stated amount of solvent, and the concentrate is diluted with water to the desired concentration.
Vessels are filled with sand, a solution of the active ingredient, a suspension containing eggs and larvae of the southern root-knot nematode (Meloidogyne incognita) and salad seeds. The salad seeds germinate and the seedlings grow. Galls develop in the roots.
After 14 days the nematicidal activity is determined based on the percentage of gall formation. 100% means no galls were found and 0% means the number of galls found on the roots of the treated plants was equal to that in untreated control plants.

The subject of assay [2] is two spotted spidermite (Tetranychus urticae). The assay can be described thus: Tetranychus urticae spray test OP-resistant. The assay is classed as in vivo. Particulars: 144 h, application rate 100 g/ha, after 6 days. Here is the method: Tetranychus urticae—Spray Test OP-Resistant
Solvent: 78.0 parts by weight acetone • 1.5 parts by weight dimethylformamide
Emulsifier: alkylarylpolyglycol ether
To produce a suitable preparation of active compound, 1 part by weight of active compound is mixed with the stated amount of solvents and is diluted with water, containing an emulsifier concentration of 1000 ppm, to the desired concentration. Further test concentrations are prepared by dilution with emulsifier containing water.
French bean (Phaseolus vulgaris) leaf disks infected with all instars of the two spotted spidermite (Tetranychus urticae), are sprayed with a preparation of the active ingredient of the desired concentration.
After 6 days mortality in % is determined. 100% means all spider mites have been killed and 0% means none of the spider mites have been killed.

On to `C[C@H](NC(=O)c1cc(OC(F)(F)F)cc(C2CC2)c1)c1ncnn1-c1ccccn1` [II-22], for which, in assay [1], the pest or weed control at 20 ppm came out at 90%.
In the case of `C[C@H](NC(=O)c1cc(C2CC2)cc(C(F)(F)F)c1)c1ncnn1-c1ccc(C#N)cn1` [II-26], in assay [2], the mortality at 100 g/ha is 90%.
The molecule `C[C@H](NC(=O)c1cc(C(F)(F)F)cc(C2(C#N)CC2)c1)c1ncnn1-c1ccc(C#N)cn1` [II-47] registered a mortality at 100 g/ha in assay [2] of 90%.
